In the supplement of paper PMC11208160:

Experiment: recombinant barcode read abundance after kanamycin selection (control-corrected) (log10(CPM+1)); higher = more efficient recombination; sequences stand for … in AGTGCAGAGAAAATCGGCCAGTTTTCTCTGCCTGCAGTCCGCATGCCGT…AGATTTATGCAGCGGACTGCCTTTCTCCCAAAGTGATAAACCGGACAGTATCATGGACCGGTTTTCCCGGTAATCCGTATTTGCAAGGTTGGTTTCACT; site = the 11-nt target
How it was run: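 A vector carrying a T7-inducible recombinase and the last 73 bp of the bridge RNA received, by Gibson cloning, oligos encoding a promoter, target, barcode and the first 104 bridge RNA bases under J23119. The pooled constructs entered E. coli together with a donor plasmid by electroporation. Selection used chloramphenicol/ampicillin/kanamycin with 0.1 mM IPTG, with chloramphenicol/ampicillin LB agar as the control, each in two replicates. Recombination efficiency is the averaged, control-corrected counts-per-million of barcodes at recombinant junctions, reported as log10(CPM+1).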
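Note: IS621 recombinase and bridge RNA in Escherichia coli cells.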

Sequence	recombinant barcode read abundance (log10)
GTGGTACCTTGGGTTCTAACCTGTTGCCT (site GTGGTAACTAG)	0.885
GTGGTACCTTGGGTTCTAACCTGTTGCCT (site GTGGTACCTAG)	2.77
GTGGTACCTTGGGTTCTAACCTGTTGCCT (site GTGGTAGCTAG)	0.0565
GTGGTACCTTGGGTTCTAACCTGTTGCCT (site GTGGTATCTAG)	0.391
GTGGTTCCTTGGGTTCTAACCTGTTGCCT (site GTGGTTCCTAG)	1.61
GTGGTTCCTTGGGTTCTAACCTGTTGCCT (site GTTGGTCCTAG)	0.112
GTGTACCCTTGGGTTCTAACCTGTTGCCT (site GAGTACCCTAG)	0.64
GTGTACCCTTGGGTTCTAACCTGTTGCCT (site GCGTACCCTAG)	1.13
GTGTACCCTTGGGTTCTAACCTGTTGCCT (site GGGTACCCTAG)	0.068
GTGTACCCTTGGGTTCTAACCTGTTGCCT (site GTGTACCCTAG)	0.918
GTGTACCCTTGGGTTCTAACCTGTTGCGC (site GTGTACCCTAC)	0.587
GTGTACCCTTGGGTTCTAACCTGTTGCGC (site GTGTACCCTCC)	0.141
GTGTACCCTTGGGTTCTAACCTGTTGCGC (site GTGTACCCTGC)	3.13
GTGTACCCTTGGGTTCTAACCTGTTGCGC (site GTGTACCCTTC)	0.31
GTGTACCCTTGGGTTCTAACCTGTTGCGT (site GTGTACCCTAC)	3.59
GTGTACCCTTGGGTTCTAACCTGTTGCGT (site GTGTACCCTCC)	1.66
GTGTACCCTTGGGTTCTAACCTGTTGCGT (site GTGTACCCTGC)	2.29
GTGTACCCTTGGGTTCTAACCTGTTGCGT (site GTGTACCCTTC)	0.185

Sequence	recombinant barcode read abundance (log10)
GTGTATACTTGGGTTCTAACCTGTTGCAT (site GTGTATACTAT)	0.589
GTGTATACTTGGGTTCTAACCTGTTGCAT (site TAACTAGCTTA)	0.0503
GTGTATCCTTGGGTTCTAACCTGTTGCTT (site GTGCCTCCTAA)	0.0308
GTGTATCCTTGGGTTCTAACCTGTTGCTT (site GTGTATCCTAA)	0.664
GTGTCAACTTGGGTTCTAACCTGTTGCCT (site GTGTCAACTAG)	0.343
GTGTCAACTTGGGTTCTAACCTGTTGCCT (site GTGTCACCTAG)	0.0106
GTGTCAACTTGGGTTCTAACCTGTTGCCT (site GTGTCAGCTAG)	0.0423
GTGTCAACTTGGGTTCTAACCTGTTGCCT (site GTGTCATCTAG)	0.0225
GTGTCAGCTTGGGTTCTAACCTGTTGCCT (site GTGTCAACTAG)	0.166
GTGTCAGCTTGGGTTCTAACCTGTTGCCT (site GTGTCACCTAG)	0.383
GTGTCAGCTTGGGTTCTAACCTGTTGCCT (site GTGTCAGCTAG)	1.56
GTGTCAGCTTGGGTTCTAACCTGTTGCCT (site GTGTCATCTAG)	0.02
GTGTCATCTTGGGTTCTAACCTGTTGCCT (site GTGTCAACTAG)	0.142
GTGTCATCTTGGGTTCTAACCTGTTGCCT (site GTGTCACCTAG)	0.0183
GTGTCATCTTGGGTTCTAACCTGTTGCCT (site GTGTCAGCTAG)	0.0185
GTGTCATCTTGGGTTCTAACCTGTTGCCT (site GTGTCATCTAG)	0.935
GTGTCCTCTTGGGTTCTAACCTGTTGCGT (site CAAAAGGCTCG)	0.039
GTGTCCTCTTGGGTTCTAACCTGTTGCGT (site GTGTCCTCTAC)	2.58
